One assay deals with MCP-1. The experiment in a line: In vitro chemotaxis (trans-well migration) v MCP-1. It counts as cell-based, human. In short, it runs like this: (§1)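 Human THP-1 monocytes (10^4-10^6) with agent at varying concentrations in upper trans-well chamber; IL-8 or MCP-1 in lower chamber at a migration-inducing concentration, 37° C for e.g. 4 hours. Migrated cells quantified by MTT (595 nm) against a THP-1 standard curve; cytotoxicity and non-chemokine chemoattractant controls run.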

The next assay relates to IL-8. Put plainly: In vitro chemotaxis, inhibition v IL-8. It counts as cell-based, human. Set-up: concentration or dose not given beside the values. In short, it runs like this:
as §1

pEC50: −log10 of the molar value. Bridge positions count the residues as written; N and C are the ends. Square brackets hold non-standard residues; d marks the D form. Peptide text beside a SMILES is read from it. * marks the point of attachment. Lauroyl = CCCCCCCCCCCC(=O)*; Ac6c = NC1(C(=O)O)CCCCC1; Octanoyl = CCCCCCCC(=O)*; dDap = NC[C@@H](N)C(=O)O; Dab = NCC[C@H](N)C(=O)O; Aoc = NCCCCCCCC(=O)O

For the compound `CC[C@H](C)[C@@H]1NC(=O)[C@H](Cc2c[nH]c3ccccc23)NC(=O)[C@H](CCCCN)NC(=O)[C@H](CCC(N)=O)NC(=O)[C@H](CCCCN)NC(=O)[C@@H]2CCCN2C(=O)[C@@H](N)CSSC[C@@H](C(N)=O)NC(=O)[C@H](CCC(N)=O)NC1=O` [Example 46, c(Cys-Pro-Lys-Gln-Lys-Trp-Ile-Gln-Cys)-NH2] (H-CPKQKWIQC-NH2; disulfide 1-9), the pEC50 (in general, the negative decadic logarithm of the EC50, by convention in mol/L) in the assay on MCP-1 was 6.82. In addition, the “v IL-8 inhibition (%)” value in the assay on IL-8 is listed as 52.4%.

In turn, `CC[C@H](C)[C@@H]1NC(=O)[C@H](Cc2c[nH]c3ccccc23)NC(=O)[C@H](CCCCN)NC(=O)[C@H](CCC(N)=O)NC(=O)[C@H](CCCCN)NC(=O)[C@@H]2CCCN2C(=O)[C@H](CC(=O)O)NC(=O)[C@@H](NC(=O)[C@@H](N)CC(C)C)CSSC[C@@H](C(N)=O)NC(=O)[C@H](CCC(N)=O)NC1=O` [Example 10, Leu-c(Cys-Asp-Pro-Lys-Gln-Lys-Trp-Ile-Gln-Cys)-NH2] (H-LCDPKQKWIQC-NH2; disulfide 2-11) showed a pEC50 with MCP-1 of 8.00. Also, the “v IL-8 inhibition (%)” value in the assay on IL-8 is 102.2%.

Compound `CCCCCCCC(=O)NCCCC[C@H](NC(=O)[C@@H](CCC(=O)O)NC(=O)[C@H](NC(=O)[C@H]1CSSC[C@@H](N)C(=O)N[C@H](CCC(N)=O)C(=O)N[C@H]([C@H](C)CC)C(=O)N[C@H](Cc2c[nH]c3ccccc23)C(=O)N[C@H](CCCCN)C(=O)N[C@H](CCC(N)=O)C(=O)N[C@H](CCCCN)C(=O)N2CCC[C@@H]2C(=O)N[C@H](CC(=O)O)C(=O)N[C@H](CC(C)C)C(=O)N1)C(C)C)C(=O)O` [Example 150, c(D-Cys-D-Gln-D-Ile-D-Trp-D-Lys-D-Gln-D-Lys-D-Pro-D-Asp-D-Leu-D-Cys)-D-Val-D-Glu-Lys(Nε-octanoyl)-OH] (H-[dC][dQ][dI][dW][dK][dQ][dK][dP][dD][dL][dC][dV][dE]K(Octanoyl)-OH; disulfide 1-11) gave a pEC50 in the assay on MCP-1 of 7.48. Also, the “v IL-8 inhibition (%)” value with IL-8 is listed as 100.5%.

Consider `CC[C@H](C)[C@@H]1NC(=O)[C@H](Cc2c[nH]c3ccccc23)NC(=O)[C@@H](NC(=O)[C@@H](N)CCCCN)CSSC[C@@H](C(N)=O)NC(=O)[C@H](CCC(N)=O)NC1=O` [Example 51, Lys-c(Cys-Trp-Ile-Gln-Cys)-NH2] (H-KCWIQC-NH2; disulfide 2-6), for which the pEC50 in the assay with MCP-1 was 7.10. For the same compound, the “v IL-8 inhibition (%)” value in the assay on IL-8 is reported as 115.9%.

For `CC(=O)N[C@H]1CSSC[C@@H](C(N)=O)NC(=O)[C@H](CCC(N)=O)NC(=O)[C@H](Cc2c[nH]c3ccccc23)NC(=O)[C@H](CCCCN)NC(=O)[C@H](CCC(N)=O)NC(=O)[C@H](CCCCN)NC(=O)[C@@H]2CCCN2C(=O)[C@H](CC(=O)O)NC(=O)C2(CCCCC2)NC1=O` [Example 156, Ac-c(Cys-A6c-Asp-Pro-Lys-Gln-Lys-Trp-Gln-Cys)-NH2] (Ac-C[Ac6c]DPKQKWQC-NH2; disulfide 1-10), the pEC50 in the assay with MCP-1 was less than 6.00. Besides, the “v IL-8 inhibition (%)” value with IL-8 is on record as 3.1%.

Compound `CC[C@@H](C)[C@H]1NC(=O)[C@H](Cc2c[nH]c3ccccc23)NC(=O)[C@H](CCCCN)NC(=O)[C@H](CCC(N)=O)NC(=O)[C@H](CCCCN)NC(=O)[C@@H]2CCCN2C(=O)[C@H](CC(=O)O)NC(=O)[C@H](CC(C)C)NC(=O)[C@@H](NC(C)=O)CSSC[C@@H](C(N)=O)NC(=O)[C@H](CCC(N)=O)NC1=O` [Example 25, Ac-c(Cys-Leu-Asp-Pro-Lys-Gln-Lys-Trp-D-Ile-Gln-Cys)-NH2] (Ac-CLDPKQKW[dI]QC-NH2; disulfide 1-11) gave a pEC50 in the assay on MCP-1 of 7.52. Also, in the assay with IL-8, the “v IL-8 inhibition (%)” value was 96.9%.

In the assay on MCP-1, `CCCCCCCC(=O)NCCCC[C@@H]1NC(=O)[C@@H](CC(=O)O)NC(=O)[C@H]2CCCN2C(=O)[C@@H](CCCCN)NC(=O)[C@@H](CCC(N)=O)NC(=O)[C@@H](CCCCN)NC(=O)[C@@H](Cc2c[nH]c3ccccc23)NC(=O)[C@@H]([C@H](C)CC)NC(=O)[C@@H](CCC(N)=O)NC(=O)[C@H](N)CSSC[C@H](C(=O)O)NC(=O)[C@@H](CC(C)C)NC1=O` [Example 154, c(D-Cys-D-Gln-D-Ile-D-Trp-D-Lys-D-Gln-D-Lys-D-Pro-D-Asp-Lys(Nε-octanoyl)-D-Leu-D-Cys)-OH] (H-[dC][dQ][dI][dW][dK][dQ][dK][dP][dD]K(Octanoyl)[dL][dC]-OH; disulfide 1-12) had a pEC50 of less than 6.00. Besides, the “v IL-8 inhibition (%)” value with IL-8 stood at 9.8%.

Regarding `CC[C@H](C)[C@@H]1NC(=O)[C@H](Cc2c[nH]c3ccccc23)NC(=O)[C@H](CCCCN)NC(=O)[C@H](CCC(N)=O)NC(=O)[C@@H](NC(=O)[C@H](CCCCN)NC(=O)[C@@H]2CCCN2C(=O)[C@H](CC(=O)O)NC(=O)[C@H](CC(C)C)NC(C)=O)CSSC[C@@H](C(N)=O)NC(=O)[C@H](CCC(N)=O)NC1=O` [Example 22, Ac-Leu-Asp-Pro-Lys-c(Cys-Gln-Lys-Trp-Ile-Gln-Cys)-NH2] (Ac-LDPKCQKWIQC-NH2; disulfide 5-11), the pEC50 in the assay with MCP-1 is 6.05. In the assay with IL-8, the “v IL-8 inhibition (%)” value is 16.8%.

In the assay with MCP-1, `CC[C@H](C)[C@@H]1NC(=O)[C@H](Cc2c[nH]c3ccccc23)NC(=O)[C@H](CCCCN)NC(=O)[C@H](CCC(N)=O)NC(=O)[C@H](CCCCN)NC(=O)[C@@H]2CCCN2C(=O)[C@H](CC(=O)O)NC(=O)[C@@H](CC(C)C)NC(=O)[C@@H](NC(C)=O)CSSC[C@@H](C(N)=O)NC(=O)[C@H](CCC(N)=O)NC1=O` [Example 32, Ac-c(Cys-D-Leu-Asp-Pro-Lys-Gln-Lys-Trp-Ile-Gln-Cys)-NH2] (Ac-C[dL]DPKQKWIQC-NH2; disulfide 1-11) had a pEC50 of less than 6.00. In addition, the “v IL-8 inhibition (%)” value in the assay with IL-8 turned out to be 8.7%.

`CC[C@@H](C)[C@H]1NC(=O)[C@@H](CCC(N)=O)NC(=O)[C@H](N)CSSC[C@H](C(=O)N[C@@H](CCC(=O)O)C(=O)NCCCCCCCC(=O)O)NC(=O)[C@@H](CC(C)C)NC(=O)[C@@H](CC(=O)O)NC(=O)[C@H]2CCCN2C(=O)[C@@H](CCCCN)NC(=O)[C@@H](CCC(N)=O)NC(=O)[C@@H](CCCCN)NC(=O)[C@@H](Cc2c[nH]c3ccccc23)NC1=O` [Example 145, c(D-Cys-D-Gln-D-Ile-D-Trp-D-Lys-D-Gln-D-Lys-D-Pro-D-Asp-D-Leu-D-Cys)-Glu-Aoc-OH] (H-[dC][dQ][dI][dW][dK][dQ][dK][dP][dD][dL][dC]E[Aoc]-OH; disulfide 1-11) showed a pEC50 in the assay on MCP-1 of 6.70. In addition, the “v IL-8 inhibition (%)” value in the assay on IL-8 is 23.8%.

In turn, `CC[C@H](C)[C@@H]1NC(=O)[C@H](Cc2c[nH]c3ccccc23)NC(=O)[C@H](CCCCN)NC(=O)[C@H](CCC(N)=O)NC(=O)[C@H](CCCCN)NC(=O)[C@@H]2CCCN2C(=O)[C@H](CC(=O)O)NC(=O)[C@H](CC(C)C)NC(=O)[C@@H](NC(=O)[C@H](CC(=O)O)NC(C)=O)CSSC[C@@H](C(=O)N[C@H](CN)C(N)=O)NC(=O)[C@H](CCC(N)=O)NC1=O` [Example 17, Ac-Asp-c(Cys-Leu-Asp-Pro-Lys-Gln-Lys-Trp-Ile-Gln-Cys)-D-Dap-NH2] (Ac-DCLDPKQKWIQC[dDap]-NH2; disulfide 2-12) showed a pEC50 in the assay on MCP-1 of less than 6.00. Also, the “v IL-8 inhibition (%)” value with IL-8 was 15.5%.

As to `CC[C@H](C)[C@@H]1NC(=O)[C@H](Cc2c[nH]c3ccccc23)NC(=O)[C@H](CCCCN)NC(=O)[C@H](CCC(N)=O)NC(=O)[C@H](CCCCN)NC(=O)[C@@H]2CCCN2C(=O)[C@H](CC(=O)O)NC(=O)[C@H](CC(C)C)NC(=O)[C@@H](NC(C)=O)CSSC[C@@H](C(=O)N[C@@H](CCN)C(N)=O)NC(=O)[C@H](CCC(N)=O)NC1=O` [Example 18, Ac-c(Cys-Leu-Asp-Pro-Lys-Gln-Lys-Trp-Ile-Gln-Cys)-Dab-NH2] (Ac-CLDPKQKWIQC[Dab]-NH2; disulfide 1-11), the pEC50 in the assay with MCP-1 is 7.70. For the same compound, in the assay on IL-8, the “v IL-8 inhibition (%)” value is reported as 103.5%.

The compound `CCCCCCCCCCCC(=O)NCCCC[C@H](N)C(=O)N[C@H](C(=O)N[C@H]1CSSC[C@@H](C(N)=O)NC(=O)[C@H](CCC(N)=O)NC(=O)[C@H]([C@@H](C)CC)NC(=O)[C@H](Cc2c[nH]c3ccccc23)NC(=O)[C@H](CCCCN)NC(=O)[C@H](CCC(N)=O)NC(=O)[C@H](CCCCN)NC(=O)[C@@H]2CCCN2C(=O)[C@H](CC(=O)O)NC(=O)[C@H](CC(C)C)NC1=O)[C@@H](C)CC` [Example 169, Lys(Nε-dodecanoyl)-Ile-c(Cys-Leu-Asp-Pro-Lys-Gln-Lys-Trp-Ile-Gln-Cys)-NH2] (H-K(Lauroyl)ICLDPKQKWIQC-NH2; disulfide 3-13) gave a pEC50 in the assay with MCP-1 of less than 6.00. For the same compound, the “v IL-8 inhibition (%)” value with IL-8 was found to be 7.7%.

Turning to `CCCCCCCC(=O)NCCCC[C@H](NC(=O)[C@@H](CC(=O)O)NC(=O)[C@H]1CSSC[C@@H](N)C(=O)N[C@H](CCC(N)=O)C(=O)N[C@H]([C@H](C)CC)C(=O)N[C@H](Cc2c[nH]c3ccccc23)C(=O)N[C@H](CCCCN)C(=O)N[C@H](CCC(N)=O)C(=O)N[C@H](CCCCN)C(=O)N2CCC[C@@H]2C(=O)N[C@H](CC(=O)O)C(=O)N[C@H](CC(C)C)C(=O)N1)C(=O)O` [Example 147, c(D-Cys-D-Gln-D-Ile-D-Trp-D-Lys-D-Gln-D-Lys-D-Pro-D-Asp-D-Leu-D-Cys)-D-Asp-Lys(Nε-octanoyl)-OH] (H-[dC][dQ][dI][dW][dK][dQ][dK][dP][dD][dL][dC][dD]K(Octanoyl)-OH; disulfide 1-11), the pEC50 with MCP-1 was 6.30. The “v IL-8 inhibition (%)” value in the assay on IL-8 worked out at 29.0%.

Take `CC[C@H](C)[C@@H]1NC(=O)[C@H](Cc2c[nH]c3ccccc23)NC(=O)[C@H](CCCCN)NC(=O)[C@@H](NC(=O)[C@H](CCC(N)=O)NC(=O)[C@H](CCCCN)NC(=O)[C@@H]2CCCN2C(=O)[C@H](CC(=O)O)NC(=O)[C@H](CC(C)C)NC(C)=O)CSSC[C@@H](C(N)=O)NC(=O)[C@H](CCC(N)=O)NC1=O` [Example 23, Ac-Leu-Asp-Pro-Lys-Gln-c(Cys-Lys-Trp-Ile-Gln-Cys)-NH2] (Ac-LDPKQCKWIQC-NH2; disulfide 6-11): the pEC50 in the assay on MCP-1 was less than 6.00. Further, the “v IL-8 inhibition (%)” value in the assay on IL-8 was determined as 13.4%.

`CC[C@H](C)[C@@H]1NC(=O)[C@H](Cc2c[nH]c3ccccc23)NC(=O)[C@H](CCCCN)NC(=O)[C@@H](NC(=O)[C@H](CCC(N)=O)NC(=O)[C@H](CCCCN)NC(=O)[C@@H]2CCCN2)CSSC[C@@H](C(N)=O)NC(=O)[C@H](CCC(N)=O)NC1=O` [Example 45, Pro-Lys-Gln-c(Cys-Lys-Trp-Ile-Gln-Cys)-NH2] (H-PKQCKWIQC-NH2; disulfide 4-9) had a pEC50 with MCP-1 of 6.82. Besides, the “v IL-8 inhibition (%)” value in the assay with IL-8 was determined as 74.2%.

The record behind these values is US20110038885A1, “CHEMOKINE ANALOGS” (priority 2007, published 2011).
